Assay results from the CheMixHub viscosity set.
± gives the uncertainty stated by the source.

Assay: xn = mol fraction of the nth substance listed

CCn1cc[n+](C)c1.[Cl-] + CN(C)C=O
308.15 K, 101 kPa
Conditions | viscosity [mPa·s]
x1 = 0.0524 | 1.045 ± 0.11
x1 = 0.0867 | 1.355 ± 0.13
x1 = 0.1232 | 1.705 ± 0.15

CCOCCO + C1COCCO1
viscosity [mPa·s], 101.33 kPa
Conditions | x1 = 0.1009 | x1 = 0.2023 | x1 = 0.3051 | x1 = 0.4014 | x1 = 0.499 | x1 = 0.602 | x1 = 0.7004 | x1 = 0.8031 | x1 = 0.8976
298.15 K | 1.293 ± 0.009 | 1.299 ± 0.009 | 1.324 ± 0.009 | 1.367 ± 0.009 | 1.424 ± 0.009 | 1.511 ± 0.01 | 1.6 ± 0.01 | 1.733 ± 0.011 | 1.844 ± 0.011
303.15 K | 1.069 ± 0.007 | 1.066 ± 0.007 | 1.085 ± 0.007 | 1.119 ± 0.007 | 1.162 ± 0.008 | 1.228 ± 0.008 | 1.299 ± 0.008 | 1.4 ± 0.009 | 1.487 ± 0.009
308.15 K | 0.982 ± 0.007 | 0.992 ± 0.007 | 1 ± 0.007 | 1.028 ± 0.007 | 1.07 ± 0.007 | 1.12 ± 0.007 | 1.183 ± 0.008 | 1.268 ± 0.008 | 1.344 ± 0.009

C[C@@H](O)[C@H](N)C(=O)[O-].[Na+] + O
viscosity [mPa·s], 101 kPa
Conditions | x1 = 0.004484 | x1 = 0.008927 | x1 = 0.01333 | x1 = 0.0177 | x1 = 0.02202 | x1 = 0.02631 | x1 = 0.03478 | x1 = 0.0431 | x1 = 0.05127
293.15 K | 1.122 ± 0.011 | 1.27 ± 0.012 | 1.439 ± 0.013 | 1.636 ± 0.013 | 1.856 ± 0.015 | 2.096 ± 0.016 | 2.659 ± 0.019 | 3.317 ± 0.024 | 4.073 ± 0.029
303.15 K | 0.9 ± 0.011 | 1.012 ± 0.011 | 1.138 ± 0.011 | 1.279 ± 0.012 | 1.425 ± 0.013 | 1.594 ± 0.014 | 1.993 ± 0.016 | 2.414 ± 0.019 | 2.986 ± 0.022
313.15 K | 0.734 ± 0.01 | 0.821 ± 0.01 | 0.914 ± 0.011 | 1.024 ± 0.011 | 1.132 ± 0.012 | 1.258 ± 0.012 | 1.55 ± 0.014 | 1.858 ± 0.015 | 2.25 ± 0.018
323.15 K | 0.612 ± 0.01 | 0.681 ± 0.01 | 0.755 ± 0.01 | 0.84 ± 0.01 | 0.925 ± 0.011 | 1.021 ± 0.011 | 1.242 ± 0.012 | 1.482 ± 0.013 | 1.767 ± 0.015

CCOCCO + CCc1ccccc1
viscosity [mPa·s]
Conditions | 298.15 K | 308.15 K
101 kPa, x1 = 0.0573 | 0.658 ± 0.011 | 0.557 ± 0.01
101 kPa, x1 = 0.1487 | 0.696 ± 0.012 | 0.597 ± 0.011
101 kPa, x1 = 0.2498 | 0.749 ± 0.013 | 0.648 ± 0.011
101 kPa, x1 = 0.3527 | 0.817 ± 0.014 | 0.708 ± 0.012
101 kPa, x1 = 0.4489 | 0.895 ± 0.015 | 0.773 ± 0.013
101 kPa, x1 = 0.4998 | 0.944 ± 0.016 | 0.812 ± 0.014
101 kPa, x1 = 0.5485 | 0.995 ± 0.016 | 0.852 ± 0.014
101 kPa, x1 = 0.6501 | 1.121 ± 0.018 | 0.945 ± 0.016
101 kPa, x1 = 0.7484 | 1.273 ± 0.021 | 1.05 ± 0.017
101 kPa, x1 = 0.8508 | 1.469 ± 0.024 | 1.178 ± 0.019
101 kPa, x1 = 0.9547 | 1.721 ± 0.027 | 1.331 ± 0.022
101.33 kPa, x2 = 0.0993 | 1.589 ± 0.012 | –
101.33 kPa, x2 = 0.1968 | 1.378 ± 0.011 | –
101.33 kPa, x2 = 0.293 | 1.22 ± 0.01 | –
101.33 kPa, x2 = 0.4069 | 1.055 ± 0.008 | –
101.33 kPa, x2 = 0.5133 | 0.929 ± 0.007 | –
101.33 kPa, x2 = 0.6286 | 0.822 ± 0.007 | –
101.33 kPa, x2 = 0.7484 | 0.736 ± 0.006 | –
101.33 kPa, x2 = 0.8672 | 0.677 ± 0.006 | –
